The record followed here is patent US8258097B2, “Amino acid derivatives” (Proximagen Ltd., priority 2007, dated 2012).

The subject of the test is 6-OHDA-lesioned rats. Kind of test: Assessment of rotational (locomotor) activity in 6-OHDA-lesioned rats. In kind it is in vivo, Male Wistar rats. As to conditions: p.o., with benserazide 10 mg/kg, 63.4 μmole/kg. As to the method: • Animals Male Wistar rats, 200-225 g on arrival, Harlan Ltd. • Housing Animals were housed in groups of 4 on a 12-h light-dark cycle with an environment of 50% humidity and temperature of 21±2° C. in accordance with Animals (Scientific Procedures) Act […] Home Office regulations. Rats had access to food and water ad libitum. • Licence All animals used in this study were treated in accordance with the UK 1986 Animals (Scientific Procedures Act). Procedure • Surgery Male Wistar rats were anaesthetized in an induction chamber using isofluorane (1-2% in 95% O2, 5% CO2 carrier gas), placed in a Kopf stereotaxic frame and anaesthesia maintained with 0.5-1.0% isofluorane. An incision was made in the scalp and a 0.8-mm-diameter hole made in the skull at coordinates AP: −2.6 mm, L: +2.0 mm (all co-ordinated measured from bregma). The neurotoxin 6-hydroxydopamine (6-OHDA) (8 μg free base in 4 μL of 0.9% saline containing 0.05% ascorbic acid) was injected into the left median forebrain bundle at a constant rate over 4 min (1 μl/min) using a 10-μL Hamilton syringe lowered to −8 mm below the dura. The needle remained in place for a further 4 min before being removed, and the wound cleaned and sutured. Carprofen (5 mg/kg subcutaneously) was administered for pain relief and a rehydration treatment of 5% glucose in 0.9% saline (up to 5 ml ip) was given prior to recovery from the anaesthetic. Behavioural Assessment Confirmation of the Lesion • At least 2 weeks following surgery, animals were examined for rotational behaviour (see below) in response to the administration of apomorphine hydrochloride (0.5 mg/kg s.c. in 0.9% saline containing 0.05% ascorbic acid) to evaluate the extent of the lesion. […]. Animals were placed in rotometers (Med Associates) for up to 30 min to measure basal activity. They were then treated with benserazide (10 mg/kg) concomitantly with test compound or L-DOPA (63.4 μmole/kg ip or po). Rotation behaviour was assessed for up to 6 hours after test drug/L-DOPA administration. Animals were typically treated with a series of compounds for comparative purposes. Each treatment was administered at least 1 day apart. Data Analysis • The number of rotations measured per 10 minutes over the 6 hour period was determined. Animals were considered active if they turned >10 turns per 10 minutes.

For `CNC(=O)Oc1cc(C[C@H](NC(=O)[C@@H](N)Cc2ccc(O)c(O)c2)C(=O)OC)ccc1O.Cl` [Example 8, (S)-2-(3,4-Dihydroxy-phenyl)-1-[(S)-2-(4-hydroxy-3-methylcarbamoyloxy-phenyl)-1-methoxycarbonyl-ethylcarbamoyl]-ethyl-ammonium chloride], the “AUC (locomotor activity)” value was 928 (±161) rotations per 220 min, the “locomotor activity compared to baseline” value is recorded as “increased locomotor activity compared to baseline” and the peak locomotor activity was 92 (±20) rotations per 10 min. Besides, the “duration of locomotor activity” value (active = >10 turns per 10 minutes) is given as 142 (±7) min.
